Laboratory results published in ChEMBL document CHEMBL3885881, “DrugMatrix”.

Species: Rattus norvegicus
Assay: DrugMatrix - Regimen: Daily Repeat
Format: toxicity, organism-based, Sprague-Dawley
Parameters: regimen Daily Repeat, gender Male, age 6-8 weeks
Conditions: in vivo, po, route oral GAVAGE, vehicle 100 % SALINE; for GLUCOSE / LACTATE DEHYDROGENASE / LIPASE / PHOSPHORUS / SODIUM / TOTAL BILIRUBIN / TOTAL PROTEIN / ALANINE AMINOTRANSFERASE / ALBUMIN / ALKALINE PHOSPHATASE / ASPARTATE AMINOTRANSFERASE / BLOOD UREA NITROGEN / CARBON DIOXIDE / CHLORIDE / CHOLESTEROL / CREATINE PHOSPHOKINASE / CREATININE: tissue Plasma; for ABSOLUTE BASOPHIL / ABSOLUTE EOSINOPHIL / ABSOLUTE LYMPHOCYTE / ABSOLUTE MONOCYTE / ABSOLUTE SEGMENTED NEUTROPHIL / BASOPHIL / EOSINOPHIL / ERYTHROCYTE COUNT / HEMATOCRIT / HEMOGLOBIN / LEUKOCYTE COUNT / LYMPHOCYTE / MEAN CORPUSCULAR HEMOGLOBIN / MEAN CORPUSCULAR HEMOGLOBIN CONCENTRATION / MONOCYTE / NEUTROPHIL / NUCLEATED RED BLOOD CELLS / PLATELET COUNT: tissue Blood
[1] = 0 mg/kg, […], dose level Control, time 7 day
[2] = 140 mg/kg, 72 h, dose level Low, time 3 day
[3] = 140 mg/kg, 120 h, dose level Low, time 5 day
[4] = 700 mg/kg, 72 h, dose level Low, time 3 day

CN(C)C=O [DIMETHYLFORMAMIDE]
GLUCOSE [1]: 132.67 mg/dL
LACTATE DEHYDROGENASE [1]: 107.17 u/L
LIPASE [1]: 10.5 u/L
PHOSPHORUS [1]: 10.47 mg/dL
SODIUM [1]: 140.73 MEQ/L
TOTAL BILIRUBIN [1]: 0.12 mg/dL
TOTAL PROTEIN [1]: 6.18 G/DL
ABSOLUTE BASOPHIL [2]: 0 CELLS/uL
ABSOLUTE EOSINOPHIL [2]: 31.33 CELLS/uL
ABSOLUTE LYMPHOCYTE [2]: 5899.33 CELLS/uL
ABSOLUTE MONOCYTE [2]: 62.67 CELLS/uL
ABSOLUTE SEGMENTED NEUTROPHIL [2]: 306.67 CELLS/uL
BASOPHIL [2]: 0%
EOSINOPHIL [2]: 0.33%
ERYTHROCYTE COUNT [2]: 4.99 x10E6/uL
HEMATOCRIT [2]: 31.43%
HEMOGLOBIN [2]: 12.53 G/DL
LEUKOCYTE COUNT [2]: 6.3 x10E3/uL
LYMPHOCYTE [2]: 94.67%
MEAN CORPUSCULAR HEMOGLOBIN [2]: 25.27 pg
MEAN CORPUSCULAR HEMOGLOBIN CONCENTRATION [2]: 40.07 G/DL
MONOCYTE [2]: 0.67%
NEUTROPHIL [2]: 4.33%
NUCLEATED RED BLOOD CELLS [2]: 0 /100WBC
PLATELET COUNT [2]: 734 x10E3/uL
ALANINE AMINOTRANSFERASE [2]: 52.67 u/L
ALBUMIN [2]: 4.17 G/DL
ALKALINE PHOSPHATASE [2]: 264.67 u/L
ASPARTATE AMINOTRANSFERASE [2]: 88.67 u/L
BLOOD UREA NITROGEN [2]: 12.33 mg/dL
CARBON DIOXIDE [2]: 36.67 mmol/L
CHLORIDE [2]: 97.33 MEQ/L
CHOLESTEROL [2]: 97.67 mg/dL
CREATINE PHOSPHOKINASE [2]: 161.33 u/L
CREATININE [2]: 0.33 mg/dL
GLUCOSE [2]: 208 mg/dL
LACTATE DEHYDROGENASE [2]: 181.33 u/L
LIPASE [2]: 10.67 u/L
PHOSPHORUS [2]: 11.23 mg/dL
SODIUM [2]: 148.43 MEQ/L
TOTAL BILIRUBIN [2]: 0.2 mg/dL
TOTAL PROTEIN [2]: 6.1 G/DL
ABSOLUTE BASOPHIL [3]: 0 CELLS/uL
ABSOLUTE EOSINOPHIL [3]: 0 CELLS/uL
ABSOLUTE LYMPHOCYTE [3]: 9653 CELLS/uL
ABSOLUTE MONOCYTE [3]: 169 CELLS/uL
ABSOLUTE SEGMENTED NEUTROPHIL [3]: 644.67 CELLS/uL
BASOPHIL [3]: 0%
EOSINOPHIL [3]: 0%
ERYTHROCYTE COUNT [3]: 6.77 x10E6/uL
HEMATOCRIT [3]: 41.07%
HEMOGLOBIN [3]: 15.33 G/DL
LEUKOCYTE COUNT [3]: 10.47 x10E3/uL
LYMPHOCYTE [3]: 93.33%
MEAN CORPUSCULAR HEMOGLOBIN [3]: 22.63 pg
MEAN CORPUSCULAR HEMOGLOBIN CONCENTRATION [3]: 37.33 G/DL
MONOCYTE [3]: 1.67%
NEUTROPHIL [3]: 5%
NUCLEATED RED BLOOD CELLS [3]: 0 /100WBC
PLATELET COUNT [3]: 1170.67 x10E3/uL
ALANINE AMINOTRANSFERASE [3]: 57.33 u/L
ALBUMIN [3]: 4.4 G/DL
ALKALINE PHOSPHATASE [3]: 234.67 u/L
ASPARTATE AMINOTRANSFERASE [3]: 93.67 u/L
BLOOD UREA NITROGEN [3]: 17.67 mg/dL
CARBON DIOXIDE [3]: 34.33 mmol/L
CHLORIDE [3]: 96.33 MEQ/L
CHOLESTEROL [3]: 111.33 mg/dL
CREATINE PHOSPHOKINASE [3]: 195.67 u/L
CREATININE [3]: 0.19 mg/dL
GLUCOSE [3]: 171.33 mg/dL
LACTATE DEHYDROGENASE [3]: 243 u/L
LIPASE [3]: 11.33 u/L
PHOSPHORUS [3]: 10.83 mg/dL
SODIUM [3]: 145.97 MEQ/L
TOTAL BILIRUBIN [3]: 0.13 mg/dL
TOTAL PROTEIN [3]: 6.67 G/DL
ABSOLUTE BASOPHIL [4]: 0 CELLS/uL
ABSOLUTE EOSINOPHIL [4]: 0 CELLS/uL
ABSOLUTE LYMPHOCYTE [4]: 7783.67 CELLS/uL
ABSOLUTE MONOCYTE [4]: 176.17 CELLS/uL
ABSOLUTE SEGMENTED NEUTROPHIL [4]: 1123.5 CELLS/uL
BASOPHIL [4]: 0%
EOSINOPHIL [4]: 0%
ERYTHROCYTE COUNT [4]: 5.7 x10E6/uL
HEMATOCRIT [4]: 37.75%
HEMOGLOBIN [4]: 13.52 G/DL
LEUKOCYTE COUNT [4]: 9.08 x10E3/uL
LYMPHOCYTE [4]: 86.17%
MEAN CORPUSCULAR HEMOGLOBIN [4]: 23.73 pg
MEAN CORPUSCULAR HEMOGLOBIN CONCENTRATION [4]: 35.83 G/DL
MONOCYTE [4]: 1.83%
NEUTROPHIL [4]: 12%
NUCLEATED RED BLOOD CELLS [4]: 0 /100WBC
PLATELET COUNT [4]: 951.67 x10E3/uL
ALANINE AMINOTRANSFERASE [4]: 77.33 u/L
